Source: patent US20030139391A1 (priority 2000, published 2003)
Marks after values point to notes of the source that are not given here.

Test system: Patients diagnosed with Alzheimer's Disease
Assay: ADAS-cog/11 in 5-month slow-titration trial
Assay type: in vivo, human
Text: Subjects in the Placebo group received 21 weeks (5 months) of placebo medication.
All patients were monitored throughout the study, with follow-up and cognitive evaluation at four weeks, three months and five months after the start of the study.
The ADAS consists of two parts—a cognitive subscale and a behavioral subscale. The behavioral subscale was not be used in this study. The cognitive subscale, the ADAS—cog-11, consisted of Word Recall and Word Recognition memory tests, Object and Finger Naming, Commands, Constructional Praxis, Ideational Praxis, Orientation, Remembering Test Instructions, Spoken language Ability, Comprehension of Spoken language and Word Finding Difficulty was the primary variable in this study.
To reduce variability due to circadian fluctuations in cognitive status the ADAS was done always at the same time of the day, preferably before noon. Only a trained ADAS rater performed the test. Ideally the ADAS rater was not involved in the treatment of the subject and should have no access to AE (adverse event) reporting.
The ADAS was performed at visits 1, 2, 3, 4 and 5 (screening, baseline, week 4, week 13 and month 5 or upon early discontinuation of trial medication intake). For word recall and word recognition two parallel wordlists, list A and list B were employed. List A was used at visits 1 and 3, List B at visits 2, 4, and 5 or upon early discontinuation of trial medication intake. For practical reasons the words for word recognition was presented only once. The total score of the 11 cognitive items on the original ADAS cognitive subscale (ADAS-cog/11, Range: 0-70) was recorded.
For continuous data, a two-way analysis of variance (ANOVA) model with treatment and investigator as factors were used to compare the treatment groups for the change from baseline data. The interaction between treatment and investigator was examined. The impact of the baseline score on change from baseline was evaluated. […] If the parametric methods were deemed inappropriate (normality assumption violated), nonparametric methods such as two-way ANOVA on ranked data, Van Elteren test, controlling for investigator, was used. Following ANOVA, Fisher's LSD procedure was used for pairwise comparisons between each galanthamine group and the placebo group. A linear contrast on the main effect for treatment was used to test the dose response relationship.

With `COc1ccc2c3c1O[C@H]1C[C@@H](O)C=C[C@@]31CCN(C)C2` [GAL, galantamine] the “Responders, ADAS-cog/11 change ≦ 0 points at Month 5: %” value (8 mg/day) was 46.5%, the “Responders, ADAS-cog/11 change ≦ 0 points at Month 5: n” value (8 mg/day) was 47 and the “Responders, ADAS-cog/11 change ≦ −4 points at Month 5: %” value (8 mg/day) was 25.7%. For the same molecule, the “Responders, ADAS-cog/11 change ≦ −4 points at Month 5: n” value (8 mg/day) was 26, the “Responders, ADAS-cog/11 change ≦ −7 points at Month 5: %” value (8 mg/day) was 13.9% and the “Responders, ADAS-cog/11 change ≦ −7 points at Month 5: n” value (8 mg/day) was 14. The “Responders, ADAS-cog/11 change ≦ −10 points at Month 5: %” value (8 mg/day) was 5.9%, the “Responders, ADAS-cog/11 change ≦ −10 points at Month 5: n” value (8 mg/day) was 6 and the “Responders, ADAS-cog/11 change ≦ 0 points at Month 5: %” value (16 mg/day) was 65.4%. The “Responders, ADAS-cog/11 change ≦ 0 points at Month 5: n” value (16 mg/day) was 136, the “Responders, ADAS-cog/11 change ≦ −4 points at Month 5: %” value (16 mg/day) was 35.6% and the “Responders, ADAS-cog/11 change ≦ −4 points at Month 5: n” value (16 mg/day) was 74. For the same molecule, the “Responders, ADAS-cog/11 change ≦ −7 points at Month 5: %” value (16 mg/day) was 15.9%, the “Responders, ADAS-cog/11 change ≦ −7 points at Month 5: n” value (16 mg/day) was 33 and the “Responders, ADAS-cog/11 change ≦ −10 points at Month 5: %” value (16 mg/day) was 7.2%. The “Responders, ADAS-cog/11 change ≦ −10 points at Month 5: n” value (16 mg/day) was 15, the “Responders, ADAS-cog/11 change ≦ 0 points at Month 5: %” value (24 mg/day) was 64.9% and the “Responders, ADAS-cog/11 change ≦ 0 points at Month 5: n” value (24 mg/day) was 137. The “Responders, ADAS-cog/11 change ≦ −4 points at Month 5: %” value (24 mg/day) was 37.0%, the “Responders, ADAS-cog/11 change ≦ −4 points at Month 5: n” value (24 mg/day) was 78 and the “Responders, ADAS-cog/11 change ≦ −7 points at Month 5: %” value (24 mg/day) was 22.3%. The “Responders, ADAS-cog/11 change ≦ −7 points at Month 5: n” value (24 mg/day) was 47, the “Responders, ADAS-cog/11 change ≦ −10 points at Month 5: %” value (24 mg/day) was 10.4% and the “Responders, ADAS-cog/11 change ≦ −10 points at Month 5: n” value (24 mg/day) was 22. For the same molecule, the “Change from baseline in ADAS-cog/11 at Month 5, Mean (SE)” value (“Change from baseline … (SE)” for short) (LOCF, 8 mg/day, no titration) was 0.4 (0.52)▪, the “Change from baseline … (SE)” value (LOCF, 16 mg/day after 4-week titration) was −1.4 (0.35)***^♭ and the “Change from baseline … (SE)” value (LOCF, 24 mg/day after 8-week titration) was −1.4 (0.39)***^♭. The “Change from baseline … (SE)” value (observed case, 8 mg/day, no titration) was 0.1 (0.58)*, the “Change from baseline … (SE)” value (observed case, 16 mg/day after 4-week titration) was −1.5 (0.40)***^† and the “Change from baseline … (SE)” value (observed case, 24 mg/day after 8-week titration) was −1.8 (0.44)***^†.
